Assay results as given in the supplement of paper PMC10307832.

Tests used:
Assay in all cases: relative viability (nuclei count vs DMSO), 5 days (fraction); higher = more cells survive
Linifanib = compound: Cc1ccc(F)c(NC(=O)Nc2ccc(-c3cccc4[nH]nc(N)c34)cc2)c1 [Linifanib]
Method in brief: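 Five library-drug doses spaced by √10 were pinned onto vehicle-anchored 1536-well plates of lung cancer cell lines that had been kept overnight at 37 °C. Cells went 5 days without medium change, then were fixed, permeabilised and Hoechst-stained together, imaged at 4× and counted by MetaXpress. Viability is the ratio of treated-well to vehicle-well nuclei, taken as a median over plates. Plates required control CV below 25% and at least one doubling.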

Linifanib + Palbociclib = compound: Cc1ccc(F)c(NC(=O)Nc2ccc(-c3cccc4[nH]nc(N)c34)cc2)c1 [Linifanib] + CC(=O)c1c(C)c2cnc(Nc3ccc(N4CCNCC4)cn3)nc2n(C2CCCC2)c1=O [Palbociclib] (partner 0.5 µM)
Method in brief: (§1)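 For relative viability, nuclei counts in treated wells were divided by those in vehicle wells. Lung cancer cell lines had been pin-tool dosed in 1536-well plates the day after seeding and cultured for 5 days, then fixed and stained in one step (final 0.05% Triton X-100, 1% formaldehyde, 1 ug/ml Hoechst) and imaged at 4×. Doses were one drug alone or a fixed anchor-drug dose plus five library-drug doses (not always all listed) in √10 steps, and values are duplicate-plate medians.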

Linifanib + Lapatinib = compound: Cc1ccc(F)c(NC(=O)Nc2ccc(-c3cccc4[nH]nc(N)c34)cc2)c1 [Linifanib] + CS(=O)(=O)CCNCc1ccc(-c2ccc3ncnc(Nc4ccc(OCc5cccc(F)c5)c(Cl)c4)c3c2)o1 [Lapatinib] (partner 2 µM)
Method in brief: as §1

Linifanib + Pictilisib = compound: Cc1ccc(F)c(NC(=O)Nc2ccc(-c3cccc4[nH]nc(N)c34)cc2)c1 [Linifanib] + CS(=O)(=O)N1CCN(Cc2cc3nc(-c4cccc5[nH]ncc45)nc(N4CCOCC4)c3s2)CC1 [Pictilisib] (partner 1 µM)
Method in brief: as §1

Linifanib + Tozasertib = compound: Cc1ccc(F)c(NC(=O)Nc2ccc(-c3cccc4[nH]nc(N)c34)cc2)c1 [Linifanib] + Cc1cc(Nc2cc(N3CCN(C)CC3)nc(Sc3ccc(NC(=O)C4CC4)cc3)n2)n[nH]1 [Tozasertib] (partner 0.1 µM)
Method in brief: as §1

Linifanib + Dasatinib = compound: Cc1ccc(F)c(NC(=O)Nc2ccc(-c3cccc4[nH]nc(N)c34)cc2)c1 [Linifanib] + Cc1nc(Nc2ncc(C(=O)Nc3c(C)cccc3Cl)s2)cc(N2CCN(CCO)CC2)n1 [Dasatinib] (partner 0.075 µM)
Method in brief: as §1

Cell Line | relative viability (Linifanib; 0.03162 µM) | relative viability (Linifanib; 0.1 µM) | relative viability (Linifanib; 0.3162 µM) | relative viability (Linifanib + Palbociclib; first compound 0.03162 µM) | relative viability (Linifanib + Palbociclib; first compound 0.1 µM) | relative viability (Linifanib + Palbociclib; first compound 0.3162 µM) | relative viability (Linifanib + Lapatinib; first compound 0.03162 µM) | relative viability (Linifanib + Lapatinib; first compound 0.1 µM) | relative viability (Linifanib + Lapatinib; first compound 0.3162 µM) | relative viability (Linifanib + Pictilisib; first compound 0.03162 µM) | relative viability (Linifanib + Pictilisib; first compound 0.1 µM) | relative viability (Linifanib + Pictilisib; first compound 0.3162 µM) | relative viability (Linifanib + Tozasertib; first compound 0.03162 µM) | relative viability (Linifanib + Tozasertib; first compound 0.1 µM) | relative viability (Linifanib + Tozasertib; first compound 0.3162 µM) | relative viability (Linifanib + Dasatinib; first compound 0.03162 µM) | relative viability (Linifanib + Dasatinib; first compound 0.1 µM) | relative viability (Linifanib + Dasatinib; first compound 0.3162 µM)
NCI-H647 | 1.05 | 1.05 | 0.945 | 0.342 | 0.506 | 0.484 | 1.22 | 1.29 | 1.01 | 0.313 | 0.512 | 0.417 | 0.188 | 0.325 | 0.352 | 0.194 | 0.231 | 0.183
NCI-H650 | 1.1 | 1.11 | 0.972 | 0.37 | 0.308 | 0.376 | 1.16 | 0.941 | 0.766 | 0.777 | 0.905 | 0.871 | 0.704 | 0.733 | 0.73 | 0.461 | 0.451 | 0.444
NCI-H661 | 1.02 | 0.977 | 0.962 | 0.437 | 0.398 | 0.417 | 0.483 | 0.449 | 0.42 | 0.424 | 0.487 | 0.38 | 0.35 | 0.35 | 0.36 | 1.07 | 0.983 | 0.871
NCI-H727 | 0.899 | 1.02 | 0.855 | 0.596 | 0.67 | 0.651 | 0.781 | 1.05 | 0.716 | 0.3 | 0.431 | 0.385 | 0.535 | 0.659 | 0.529 | 0.449 | 0.344 | 0.521
NCI-H838 | 0.96 | 1.06 | 0.936 | 0.22 | 0.223 | 0.23 | 1.01 | 1.11 | 0.933 | 0.464 | 0.466 | 0.458 | 0.248 | 0.301 | 0.229 | 0.286 | 0.282 | 0.27
NCI-H1355 | 1.03 | 1.07 | 0.99 | 0.398 | 0.411 | 0.389 | 1.04 | 0.934 | 1.01 | 0.463 | 0.401 | 0.433 | 0.504 | 0.547 | 0.551 | 0.76 | 0.859 | 0.697
NCI-H1395 | 0.956 | 0.983 | 0.868 | 0.656 | 0.673 | 0.691 | 0.986 | 0.982 | 1.14 | 0.676 | 0.715 | 0.525 | 0.691 | 0.725 | 0.729 | 0.3 | 0.394 | 0.405
NCI-H1437 | 1.07 | 1.01 | 0.978 | 0.344 | 0.331 | 0.311 | 0.957 | 0.801 | 0.77 | 0.529 | 0.495 | 0.471 | 0.375 | 0.444 | 0.389 | 0.375 | 0.407 | 0.378
NCI-H1650 | 0.965 | 0.966 | 0.89 | 0.35 | 0.399 | 0.351 | 0.797 | 0.9 | 0.721 | 0.661 | 0.671 | 0.5 | 0.389 | 0.475 | 0.377 | 0.327 | 0.348 | 0.252
NCI-H1651 | 1.07 | 1.09 | 0.978 | 0.536 | 0.527 | 0.487 | 0.981 | 0.88 | 0.817 | 0.591 | 0.582 | 0.355 | 0.618 | 0.832 | 0.695 | 0.499 | 0.393 | 0.398
NCI-H1666 | 0.986 | 1.03 | 0.939 | 0.649 | 0.647 | 0.693 | 0.792 | 0.649 | 0.705 | 0.492 | 0.419 | 0.402 | 0.626 | 0.666 | 0.658 | 0.856 | 0.833 | 0.779
NCI-H1734 | 1.04 | 1.06 | 0.942 | 0.322 | 0.357 | 0.394 | 1.04 | 1.19 | 1.01 | 0.501 | 0.526 | 0.373 | 0.289 | 0.288 | 0.238 | 0.529 | 0.53 | 0.428
NCI-H1755 | 1.03 | 1.06 | 0.987 | 0.47 | 0.461 | 0.429 | 1.1 | 1.09 | 1.01 | 0.493 | 0.503 | 0.397 | 0.585 | 0.625 | 0.553 | 0.458 | 0.406 | 0.388
NCI-H1793 | 0.908 | 1.08 | 0.941 | 0.31 | 0.349 | 0.292 | 0.7 | 0.765 | 0.765 | 0.336 | 0.285 | 0.332 | 0.253 | 0.467 | 0.372 | 0.394 | 0.439 | 0.406
NCI-H1915 | 1.03 | 1.02 | 0.934 | 0.541 | 0.548 | 0.507 | 1.08 | 0.925 | 0.89 | 1.04 | 0.923 | 0.892 | 0.436 | 0.469 | 0.399 | 0.301 | 0.359 | 0.36
NCI-H1944 | 0.931 | 1.08 | 0.963 | 0.334 | 0.353 | 0.35 | 0.943 | 0.881 | 0.645 | 0.368 | 0.378 | 0.341 | 0.249 | 0.261 | 0.259 | 0.204 | 0.215 | 0.216
NCI-H1975 | 0.987 | 1.03 | 0.938 | 0.6 | 0.783 | 0.551 | 0.898 | 1.11 | 0.874 | 0.298 | 0.3 | 0.367 | 0.681 | 0.901 | 0.722 | 0.396 | 0.367 | 0.344
NCI-H1993 | 0.89 | 1.2 | 0.946 | 0.688 | 0.826 | 0.725 | 0.796 | 0.853 | 0.878 | 0.838 | 0.77 | 0.963 | 0.62 | 0.638 | 0.57 | 0.683 | 0.551 | 0.681
NCI-H2009 | 1.08 | 0.972 | 0.987 | 0.247 | 0.263 | 0.25 | 1.23 | 0.928 | 0.941 | 0.873 | 0.973 | 0.835 | 0.718 | 0.834 | 0.71 | 0.323 | 0.358 | 0.304
NCI-H2023 | 0.972 | 1.09 | 1.02 | 0.357 | 0.415 | 0.345 | 0.801 | 1.06 | 0.733 | 0.221 | 0.297 | 0.263 | 0.322 | 0.398 | 0.293 | 0.543 | 0.681 | 0.565
NCI-H2085 | 1.02 | 1.06 | 1.01 | 0.485 | 0.474 | 0.463 | 0.809 | 0.83 | 0.734 | 0.426 | 0.711 | 0.484 | 0.793 | 0.772 | 0.843 | 0.252 | 0.239 | 0.268
NCI-H2087 | 1.05 | 1.19 | 0.964 | 0.219 | 0.285 | 0.269 | 1.15 | 1.2 | 0.672 | 0.977 | 0.989 | 0.825 | 0.295 | 0.254 | 0.267 | 1.12 | 1.22 | 0.787
NCI-H2126 | 1.02 | 1.01 | 0.972 | 0.376 | 0.388 | 0.379 | 0.792 | 0.788 | 0.779 | 0.48 | 0.507 | 0.457 | 0.847 | 0.998 | 0.806 | 0.622 | 0.718 | 0.622
NCI-H2170 | 0.989 | 1.01 | 0.928 | 0.385 | 0.421 | 0.402 | 0.255 | 0.277 | 0.279 | 0.297 | 0.332 | 0.304 | 0.706 | 0.716 | 0.712 | 0.662 | 0.611 | 0.579
NCI-H2228 | 0.993 | 1.3 | 1.03 | 0.803 | 0.85 | 0.818 | 0.998 | 1.3 | 0.922 | 0.415 | 0.64 | 0.386 | 0.206 | 0.233 | 0.295 | 0.541 | 0.556 | 0.538
NCI-H2347 | 1.08 | 1.22 | 1 | 0.462 | 0.441 | 0.404 | 0.955 | 0.927 | 0.909 | 0.863 | 0.987 | 0.817 | 0.615 | 0.523 | 0.591 | 0.356 | 0.399 | 0.284
NCI-H2405 | 1.08 | 1.04 | 0.966 | 0.56 | 0.532 | 0.513 | 1.19 | 1.05 | 1.12 | 0.499 | 0.606 | 0.477 | 0.785 | 0.809 | 0.778 | 0.212 | 0.199 | 0.219
NCI-H3122 | 1.02 | 1.02 | 0.975 | 0.19 | 0.196 | 0.179 | 1.11 | 1.11 | 0.922 | 0.598 | 0.648 | 0.577 | 0.456 | 0.437 | 0.371 | 0.908 | 0.908 | 0.877
PC-3 [JPC-3] | 1.06 | 1.03 | 0.939 | 0.615 | 0.537 | 0.487 | 0.482 | 0.413 | 0.496 | 0.743 | 0.786 | 0.687 | 0.893 | 0.979 | 0.811 | 1.04 | 1.01 | 0.972
